Laboratory results reported in ChEMBL document CHEMBL3779873, “Rubrolide analogues and their derived lactams as potential anticancer agents” (Medchemcomm, 2016).
≈ marks a conversion by molar mass, not a printed value. Calls of active or inactive are those of the source. The rule behind the calls is not given here.

What was measured:
[1] = Cytotoxicity against human OVCAR8 cells after 72 hrs by MTT assay; assay type: functional, OVCAR-8
[2] = Cytotoxicity against human SF295 cells after 72 hrs by MTT assay; assay type: functional, SF-295
[3] = Cytotoxicity against human HCT116 cells after 72 hrs by MTT assay; assay type: functional, HCT-116
[4] = Cytotoxicity against human HL60 cells after 72 hrs by MTT assay; assay type: functional, HL-60
[5] = tested on: HL-60; test: Induction of apoptosis in human HL60 cells assessed as cell shrinkage at 0.5 uM after 24 hrs by giemsa staining-based light microscopy analysis; assay type: functional
[6] = tested on: HL-60; test: Induction of apoptosis in human HL60 cells assessed as chromatin condensation at 0.5 uM after 24 hrs by giemsa staining-based light microscopy analysis; assay type: functional, cell-based
[7] = tested on: HL-60; test: Induction of apoptosis in human HL60 cells assessed as nuclear fragmentation at 0.5 uM after 24 hrs by giemsa staining-based light microscopy analysis; assay type: functional, cell-based
[8] = tested on: HL-60; test: Induction of cell cycle arrest in human HL60 cells assessed as accumulation at G0/G1 phase at 0.5 uM after 24 hrs by annexin V/propidium iodide staining based flow cytometry (reference value: 45.81 +/- 3.16%); assay type: functional
[9] = tested on: HL-60; test: Induction of cell cycle arrest in human HL60 cells assessed as accumulation at sub-G0/G1 phase at 0.5 uM after 24 hrs by annexin V/propidium iodide staining based flow cytometry (reference value: 6.10 +/- 0.28 %); assay type: functional
[10] = tested on: HL-60; test: Induction of cell cycle arrest in human HL60 cells assessed as accumulation at G2/M phase at 0.5 uM after 24 hrs by annexin V/propidium iodide staining based flow cytometry (reference value: 19.04 +/- 1.1%); assay type: functional
[11] = tested on: HL-60; test: Induction of cell cycle arrest in human HL60 cells assessed as accumulation at S phase at 0.5 uM after 24 hrs by annexin V/propidium iodide staining based flow cytometry (reference value: 27.64 +/- 2.15%); assay type: functional
[12] = tested on: HT-29; test: Cytotoxicity against human HT-29 cells; assay type: functional; settings: read-out: ED50 (the source's name)
[13] = tested on: HL-60; test: Induction of apoptosis in human HL60 cells assessed as increase in apoptotic cells after 24 hrs by acridine orange/ethidium bromide staining based fluorescence microscopy; assay type: functional, cell-based
[14] = Cytotoxicity against human HCT116 cells assessed as reduction in cell viability at 25 ug/mL after 72 hrs by MTT assay; assay type: functional, HCT-116
[15] = Cytotoxicity against human OVCAR8 cells assessed as reduction in cell viability at 25 ug/mL after 72 hrs by MTT assay; assay type: functional, OVCAR-8
[16] = Cytotoxicity against human SF295 cells assessed as reduction in cell viability at 25 ug/mL after 72 hrs by MTT assay; assay type: functional, SF-295
[17] = Cytotoxicity against mouse L929 cells after 72 hrs by MTT assay; assay type: cell-based; settings: read-out: RC50
[18] = tested on: HL-60; test: Induction of apoptosis in human HL60 cells assessed as chromatin condensation at 2.5 to 10 uM after 24 hrs by giemsa staining-based light microscopy analysis; assay type: functional, cell-based
[19] = tested on: HL-60; test: Induction of cell cycle arrest in human HL60 cells assessed as accumulation at sub-G0/G1 phase at 2.5 uM after 24 hrs by annexin V/propidium iodide staining based flow cytometry (reference value: 6.10 +/- 0.28 %); assay type: functional
[20] = tested on: HL-60; test: Induction of apoptosis in human HL60 cells assessed as intranuclear vacuoles at 2.5 to 10 uM after 24 hrs by giemsa staining-based light microscopy analysis; assay type: functional, cell-based
[21] = tested on: HL-60; test: Induction of apoptosis in human HL60 cells assessed as cytoplasmic budding at 2.5 to 10 uM after 24 hrs by giemsa staining-based light microscopy analysis; assay type: functional, cell-based
[22] = tested on: HL-60; test: Induction of apoptosis in human HL60 cells assessed as reduction in cellular and nuclear volumes at 2.5 to 10 uM after 24 hrs by giemsa staining-based light microscopy analysis; assay type: functional, cell-based
[23] = tested on: HL-60; test: Induction of apoptosis in human HL60 cells assessed as chromatolysis at 2.5 to 10 uM after 24 hrs by giemsa staining-based light microscopy analysis; assay type: functional, cell-based
[24] = tested on: HL-60; test: Induction of apoptosis in human HL60 cells assessed as decrease in viable cells after 24 hrs by acridine orange/ethidium bromide staining based fluorescence microscopy; assay type: functional, cell-based
[25] = tested on: HL-60; test: Induction of apoptosis in human HL60 cells assessed as increase in necrotic cells after 24 hrs by acridine orange/ethidium bromide staining based fluorescence microscopy; assay type: functional, cell-based
[26] = tested on: HL-60; test: Induction of apoptosis in human HL60 cells assessed as decrease in viable cells at 5 uM after 24 hrs by acridine orange/ethidium bromide staining based fluorescence microscopy; assay type: functional
[27] = tested on: HL-60; test: Induction of apoptosis in human HL60 cells assessed as decrease in viable cells at 10 uM after 24 hrs by acridine orange/ethidium bromide staining based fluorescence microscopy; assay type: functional
[28] = tested on: HL-60; test: Induction of apoptosis in human HL60 cells assessed as increase in apoptotic cells at 5 uM after 24 hrs by acridine orange/ethidium bromide staining based fluorescence microscopy; assay type: functional
[29] = tested on: HL-60; test: Induction of apoptosis in human HL60 cells assessed as increase in apoptotic cells at 10 uM after 24 hrs by acridine orange/ethidium bromide staining based fluorescence microscopy; assay type: functional
[30] = tested on: HL-60; test: Induction of apoptosis in human HL60 cells assessed as increase in necrotic cells at 10 uM after 24 hrs by acridine orange/ethidium bromide staining based fluorescence microscopy; assay type: functional
[31] = tested on: HL-60; test: Induction of cell cycle arrest in human HL60 cells assessed as accumulation at sub-G0/G1 phase at 5 uM after 24 hrs by annexin V/propidium iodide staining based flow cytometry (reference value: 6.10 +/- 0.28 %); assay type: functional
[32] = tested on: HL-60; test: Induction of cell cycle arrest in human HL60 cells assessed as accumulation at sub-G0/G1 phase at 10 uM after 24 hrs by annexin V/propidium iodide staining based flow cytometry (reference value: 6.10 +/- 0.28 %); assay type: functional
[33] = tested on: HL-60; test: Induction of cell cycle arrest in human HL60 cells assessed as accumulation at G0/G1 phase at 2.5 uM after 24 hrs by annexin V/propidium iodide staining based flow cytometry (reference value: 45.81 +/- 3.16 %); assay type: functional
[34] = tested on: HL-60; test: Induction of cell cycle arrest in human HL60 cells assessed as accumulation at G0/G1 phase at 5 uM after 24 hrs by annexin V/propidium iodide staining based flow cytometry (reference value: 45.81 +/- 3.16 %); assay type: functional
[35] = tested on: HL-60; test: Induction of cell cycle arrest in human HL60 cells assessed as accumulation at G0/G1 phase at 10 uM after 24 hrs by annexin V/propidium iodide staining based flow cytometry (reference value: 45.81 +/- 3.16 %); assay type: functional
[36] = tested on: HL-60; test: Induction of cell cycle arrest in human HL60 cells assessed as accumulation at S phase at 2.5 uM after 24 hrs by annexin V/propidium iodide staining based flow cytometry (reference value: 27.64 +/- 2.15 %); assay type: functional
[37] = tested on: HL-60; test: Induction of cell cycle arrest in human HL60 cells assessed as accumulation at S phase at 5 uM after 24 hrs by annexin V/propidium iodide staining based flow cytometry (reference value: 27.64 +/- 2.15 %); assay type: functional
[38] = tested on: HL-60; test: Induction of cell cycle arrest in human HL60 cells assessed as accumulation at S phase at 10 uM after 24 hrs by annexin V/propidium iodide staining based flow cytometry (reference value: 27.64 +/- 2.15 %); assay type: functional
[39] = tested on: HL-60; test: Induction of cell cycle arrest in human HL60 cells assessed as accumulation at G2/M phase at 2.5 uM after 24 hrs by annexin V/propidium iodide staining based flow cytometry (reference value: 19.04 +/- 1.10 %); assay type: functional
[40] = tested on: HL-60; test: Induction of cell cycle arrest in human HL60 cells assessed as accumulation at G2/M phase at 5 uM after 24 hrs by annexin V/propidium iodide staining based flow cytometry (reference value: 19.04 +/- 1.10 %); assay type: functional
[41] = tested on: HL-60; test: Induction of cell cycle arrest in human HL60 cells assessed as accumulation at G2/M phase at 10 uM after 24 hrs by annexin V/propidium iodide staining based flow cytometry (reference value: 19.04 +/- 1.10 %); assay type: functional
[42] = tested on: HL-60; test: Induction of apoptosis in human HL60 cells assessed as mitochondrial depolarization after 24 hrs by rhodamine-123 as fluorescent dye based flow cytometry; assay type: functional, cell-based
[43] = tested on: HL-60; test: Induction of apoptosis in human HL60 cells assessed as phosphatidylserine externalization at 2.5 uM after 24 hrs by annexin V/propidium iodide staining based flow cytometry; assay type: functional
[44] = tested on: HL-60; test: Induction of apoptosis in human HL60 cells assessed as phosphatidylserine externalization at 5 uM after 24 hrs by annexin V/propidium iodide staining based flow cytometry; assay type: functional
[45] = tested on: HL-60; test: Induction of apoptosis in human HL60 cells assessed as phosphatidylserine externalization at 10 uM after 24 hrs by annexin V/propidium iodide staining based flow cytometry; assay type: functional
[46] = tested on: HL-60; test: Induction of apoptosis in human HL60 cells assessed as mitochondrial depolarization at 2.5 uM after 24 hrs by rhodamine-123 as fluorescent dye based flow cytometry; assay type: functional
[47] = tested on: HL-60; test: Induction of apoptosis in human HL60 cells assessed as mitochondrial depolarization at 5 uM after 24 hrs by rhodamine-123 as fluorescent dye based flow cytometry; assay type: functional
[48] = tested on: HL-60; test: Induction of apoptosis in human HL60 cells assessed as mitochondrial depolarization at 10 uM after 24 hrs by rhodamine-123 as fluorescent dye based flow cytometry; assay type: functional
[49] = tested on: HL-60; test: Induction of apoptosis in human HL60 cells assessed as DNA fragmentation after 24 hrs by annexin V/propidium iodide staining based flow cytometry; assay type: functional, cell-based

## COc1cccc2c1C(=O)c1c(O)c3c(c(O)c1C2=O)C[C@@](O)(C(=O)CO)C[C@@H]3O[C@H]1C[C@H](N)[C@H](O)[C@H](C)O1 [DOXORUBICIN]
[1]
  RC50: 0.62 µM
[2]
  RC50: 0.44 µM
[3]
  RC50: 0.04 µM
[4]
  RC50: 0.02 µM
[5]
  Activity: Active
[6]
  Activity: Active
[7]
  Activity: Active
[8]
  Activity: 33.78%
[9]
  Activity: 46.25%
[10]
  Activity: 2.59%
[11]
  Activity: 15.5%

## O=C1O/C(=C\c2ccc(O)c(Br)c2)C(c2ccc(O)c(Br)c2)=C1Cl
[12]
  EC50: 1.2 mg/L (≈ 2.54 µM)

## O=C1O/C(=C\c2ccc(Br)cc2)C(Cl)=C1Cl
[13]
  Activity: Dose-dependent effect
[14]
  Activity: 98.27%
[15]
  Activity: 98.99%
[16]
  Activity: 94.12%
[1]
  RC50: 13.68 µM
[2]
  RC50: 14.68 µM
[3]
  RC50: 8.18 µM
[4]
  RC50: 3 µM
[17]
  CC50 at 72 h: > 50 µM
[18]
  Activity: Active
[19]
  Activity: 17.5%
[20]
  Activity: Active
[21]
  Activity: Active
[22]
  Activity: Active
[23]
  Activity: Active
[24]
  Activity: Dose-dependent effect
[25]
  Activity: Dose-dependent effect
[26]
  Activity: 17.7%
[27]
  Activity: 47.3%
[28]
  Activity: 24.1%
[29]
  Activity: 46.8%
[30]
  Activity: 12.7%
[31]
  Activity: 29.63%
[32]
  Activity: 51.26%
[33]
  Activity: 45.29%
[34]
  Activity: 43.19%
[35]
  Activity: 33.59%
[36]
  Activity: 24.16%
[37]
  Activity: 14.77%
[38]
  Activity: 7.26%
[39]
  Activity: 7.39%
[40]
  Activity: 4.68%
[41]
  Activity: 2.71%
[42]
  Activity: Dose-dependent effect
[43]
  Activity: 9.5%
[44]
  Activity: 19%
[45]
  Activity: 29%
[46]
  Activity: 21.7%
[47]
  Activity: 37.1%
[48]
  Activity: 56.2%
[49]
  Activity: Dose-dependent effect
